Common to all, as to test: ≥ marks a high value that may be exact or a test limit, other limits are often not marked, values filed in µg/mL are converted to µM
Assay [1] relates to Escherichia coli CCT 1457.
Assay [2] relates to Staphylococcus aureus CCT 2580.
Assay [3] deals with Staphylococcus epidermidis ATCC 12228.
Assay [4] has as its system Streptococcus mutans AU159.
The subject of assay [5] is Enterococcus faecium CCT 5079.
The subject of assay [6] is Streptococcus pneumoniae ATCC 11733.
In assay [7] the test system is Micrococcus luteus ATCC 4698.
In assay [8] the test system is Staphylococcus aureus ATCC 6538.
Assay [9] relates to Salmonella enterica subsp. enterica serovar Typhimurium ATCC 14028.
Assay [10] deals with Enterococcus hirae ATCC 10541.
Assay [11] has as its system Staphylococcus aureus ATCC 25923.
For assay [12], the system named is Bacillus subtilis CCT 2576.
In assay [13] the test system is Escherichia coli ATCC 25922.
Assay [14] has as its system Salmonella enterica subsp. enterica serovar Choleraesuis ATCC 10708.
For assay [15], the system named is Bacillus thuringiensis ATCC 10792.
Assay [16] deals with Pseudomonas aeruginosa ATCC 13388.
Assay [17] has as its system Escherichia coli ATCC 11775.
In assay [18] the test system is Pseudomonas aeruginosa ATCC 15422.
Assay [19] relates to Bacillus cereus ATCC 11778.
Assay [20] has as its system Staphylococcus aureus CCT 6538.
The subject of assay [21] is Bacillus subtilis PY79.
In assay [22] the test system is Pseudomonas aeruginosa PA14.
The subject of assay [23] is Klebsiella pneumoniae ATCC 700603.
Assay [24] deals with Escherichia coli DH5alpha.
For assay [25], the system named is Pseudomonas aeruginosa PAO1.
The subject of assay [26] is Staphylococcus aureus ATCC 6538P.
The subject of assay [27] is Fusarium graminearum PH-1.

Values after ≈ are worked out from the molar mass of the structure shown.

For `CC[C@H](C)[C@H](N)C(=O)N[C@@H](CC(N)=O)C(=O)N[C@@H](Cc1c[nH]c2ccccc12)C(=O)N[C@@H](CC(C)C)C(=O)N[C@@H](CCCCN)C(=O)N[C@@H](C)C(=O)N[C@@H](CCCCN)C(=O)N[C@@H](CCCCN)C(=O)N[C@H](C(=O)N[C@@H](C)C(=O)NCC(=O)N[C@@H](CCSC)C(=O)N[C@H](C(=O)N[C@@H](CC(C)C)C(N)=O)[C@@H](C)CC)C(C)C` [INWLKAKKVAGMIL], the minimum inhibitory concentration (MIC) in assay [1] was 19.6 µM (≈ 31 µg/mL); in assay [2] it was 27.1 µM (≈ 43 µg/mL); in assay [3], 39.7 µM (≈ 63 µg/mL); in [4], at least 315 µM; in assay [5], at least 158 µM; in assay [6], at least 78.9 µM. Besides, the MIC in [7] was 19.6 µM (≈ 31 µg/mL); in [8], 27.1 µM (≈ 42.9 µg/mL); in [9] it was 315 µM (≈ 500 µg/mL); in [10], at least 39.7 µM; in [11], 39.7 µM (≈ 63 µg/mL); in assay [12], 7.38 µM (≈ 11.7 µg/mL). For the same compound, the minimum inhibitory concentration (MIC) is 14.8 µM (≈ 23.4 µg/mL) in [13]; at least 315 µM in assay [14]; at least 78.9 µM in assay [15]; at least 158 µM in [16]; at least 39.7 µM in assay [17]; at least 78.9 µM in assay [18]. Further, the MIC is 10.1 µM (≈ 16 µg/mL) in assay [19] and at least 39.7 µM in assay [20].

Consider `CC(=O)NC(CC(C)C)C(=O)NC(CCCNC(=N)N)C(=O)NC(C(=O)NC(CCCNC(=N)N)C(=O)NC(CC(C)C)C(=O)NC(C)C(=O)NC(CO)C(=O)NC(Cc1c[nH]cn1)C(=O)NC(CC(C)C)C(=O)NC(CCCNC(=N)N)C(=O)NC(CCCCN)C(=O)NC(CC(C)C)C(=O)NC(CCCNC(=N)N)C(=O)NC(CCCCN)C(=O)NC(CCCNC(=N)N)C(=O)NC(CC(C)C)C(=O)NC(CC(C)C)C(N)=O)C(C)C` (stereo not drawn) [LRVRLASHLRKLRKRLL], for which the minimal inhibitory concentration (MIC) in assay [21] is at least 100 µM; in [22], at least 50 µM; in assay [23], 3.12 µM (≈ 6.77 µg/mL); in assay [13], 6.25 µM (≈ 13.6 µg/mL); in assay [24], 12.5 µM (≈ 27.1 µg/mL); in assay [25] it was 25 µM (≈ 54.2 µg/mL). Also, the minimal inhibitory concentration (MIC) in [26] is at least 100 µM.

`NC(N)=NCCC[C@H](NC(=O)[C@H](CCCN=C(N)N)NC(=O)[C@H](CCCN=C(N)N)NC(=O)[C@H](Cc1ccccc1)NC(=O)CNC(=O)[C@@H](N)CCCN=C(N)N)C(=O)O` [RGFRRR] had a minimum inhibitory concentration (MIC) in assay [27] of 12 µM (≈ 10.2 µg/mL).

The values are drawn from DBAASP.
